Assay results as given in ChEMBL document CHEMBL5715954, “Silencing c-Myc translation as a therapeutic strategy through targeting PI3Kδ and CK1ε in hematological malignancies” (Blood, 2017).
Calls of active or inactive are those of the source. The rule behind the calls is not given here.

Tests used:
mTORC1 (Homo sapiens) [1] = biological target: T1, mTORC1 (Homo sapiens) (UniProt P42345+Q8N122+Q9BVC4); assay: Inhibition of mTORC1 in human LY10 cells assessed as reduction in 4E-BP1 phosphorylation at 3 uM measured after 24 hrs in presence of bortezomib by Western blot analysis; assay type: cell-based
T1 sequence (Q8N122 whole entry, looked up, other chains not shown): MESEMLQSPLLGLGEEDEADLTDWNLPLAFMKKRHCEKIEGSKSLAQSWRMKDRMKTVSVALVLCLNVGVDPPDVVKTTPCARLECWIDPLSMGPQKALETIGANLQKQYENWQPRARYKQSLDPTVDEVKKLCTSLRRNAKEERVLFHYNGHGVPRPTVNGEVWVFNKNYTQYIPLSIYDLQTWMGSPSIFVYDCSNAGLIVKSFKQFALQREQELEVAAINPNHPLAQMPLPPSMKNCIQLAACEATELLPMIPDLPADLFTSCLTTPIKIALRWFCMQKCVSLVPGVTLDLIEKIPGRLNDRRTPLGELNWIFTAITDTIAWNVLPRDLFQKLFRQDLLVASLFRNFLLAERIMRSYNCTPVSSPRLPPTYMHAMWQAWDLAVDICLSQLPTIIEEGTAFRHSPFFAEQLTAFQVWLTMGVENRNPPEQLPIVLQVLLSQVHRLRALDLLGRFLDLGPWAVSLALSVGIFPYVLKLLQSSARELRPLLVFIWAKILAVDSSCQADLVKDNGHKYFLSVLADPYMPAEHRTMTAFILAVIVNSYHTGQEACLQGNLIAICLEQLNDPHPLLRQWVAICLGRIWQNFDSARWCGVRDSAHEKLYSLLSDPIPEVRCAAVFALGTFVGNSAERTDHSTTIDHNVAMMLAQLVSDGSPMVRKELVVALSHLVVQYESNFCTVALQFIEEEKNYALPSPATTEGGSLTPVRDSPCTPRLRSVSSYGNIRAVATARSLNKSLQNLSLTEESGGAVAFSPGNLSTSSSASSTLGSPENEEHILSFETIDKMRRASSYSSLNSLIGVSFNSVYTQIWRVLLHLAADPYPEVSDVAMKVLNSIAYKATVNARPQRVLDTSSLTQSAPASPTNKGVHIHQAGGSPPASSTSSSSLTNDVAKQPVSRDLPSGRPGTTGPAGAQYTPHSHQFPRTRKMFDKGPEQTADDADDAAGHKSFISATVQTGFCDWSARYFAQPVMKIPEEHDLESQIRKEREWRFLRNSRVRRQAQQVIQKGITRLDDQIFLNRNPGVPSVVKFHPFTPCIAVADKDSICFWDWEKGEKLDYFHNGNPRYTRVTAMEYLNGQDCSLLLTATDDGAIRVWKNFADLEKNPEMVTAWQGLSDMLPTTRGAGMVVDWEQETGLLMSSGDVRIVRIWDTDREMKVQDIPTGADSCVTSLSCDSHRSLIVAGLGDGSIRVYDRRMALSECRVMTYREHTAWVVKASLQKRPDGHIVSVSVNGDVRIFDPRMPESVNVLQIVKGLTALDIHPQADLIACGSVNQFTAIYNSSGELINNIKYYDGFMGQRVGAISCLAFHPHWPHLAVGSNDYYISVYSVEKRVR
T1 sequence (Q9BVC4 whole entry, looked up, other chains not shown): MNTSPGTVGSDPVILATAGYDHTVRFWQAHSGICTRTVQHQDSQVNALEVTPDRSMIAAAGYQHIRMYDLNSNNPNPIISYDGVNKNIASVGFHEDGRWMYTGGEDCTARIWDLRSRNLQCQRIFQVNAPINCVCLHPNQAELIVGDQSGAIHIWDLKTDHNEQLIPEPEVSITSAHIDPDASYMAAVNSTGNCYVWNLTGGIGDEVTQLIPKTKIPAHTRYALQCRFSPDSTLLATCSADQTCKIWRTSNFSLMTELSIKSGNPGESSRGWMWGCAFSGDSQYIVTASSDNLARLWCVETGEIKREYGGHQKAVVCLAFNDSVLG

[2] = biological target: Myc proto-oncogene protein (Homo sapiens) (UniProt P01106); assay: Inhibition of c-Myc in human LY10 cells assessed as reduction in eIF4B expression at 3 uM incubated for 24 hrs in presence of bortezomib by Western blot analysis; assay type: cell-based
Sequence of Myc proto-oncogene protein (Homo sapiens) (P01106 whole entry): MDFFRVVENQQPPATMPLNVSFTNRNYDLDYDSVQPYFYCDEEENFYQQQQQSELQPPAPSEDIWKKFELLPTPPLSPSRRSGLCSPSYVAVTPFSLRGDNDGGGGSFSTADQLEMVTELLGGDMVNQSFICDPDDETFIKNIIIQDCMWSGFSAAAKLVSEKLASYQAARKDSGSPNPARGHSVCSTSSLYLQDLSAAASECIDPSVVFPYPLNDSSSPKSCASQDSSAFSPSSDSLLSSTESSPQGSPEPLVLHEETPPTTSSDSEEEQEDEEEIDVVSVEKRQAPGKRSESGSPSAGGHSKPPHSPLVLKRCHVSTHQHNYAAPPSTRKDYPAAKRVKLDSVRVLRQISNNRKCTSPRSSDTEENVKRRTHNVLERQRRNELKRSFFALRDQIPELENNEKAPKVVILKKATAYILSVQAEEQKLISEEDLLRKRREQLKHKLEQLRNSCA

NCI-H929 = assay: Cytotoxicity against human NCI-H929 cells transduced with an empty vector assessed as reduction in cell viability at 5 uM incubated for 24 hrs in presence of carfilzomib by cell-titer glo assay; assay type: functional, cell-based
[3] = biological target: T2, Phosphatidylinositol 4,5-bisphosphate 3-kinase catalytic subunit delta isoform (Homo sapiens) (UniProt O00329); assay: Inhibition of PI3Kdelta in human THP-1 cells assessed as reduction in AKT phosphorylation at S473 residue at 1 uM measured after 4 hrs relative to control; assay type: cell-based
T2 sequence (whole entry): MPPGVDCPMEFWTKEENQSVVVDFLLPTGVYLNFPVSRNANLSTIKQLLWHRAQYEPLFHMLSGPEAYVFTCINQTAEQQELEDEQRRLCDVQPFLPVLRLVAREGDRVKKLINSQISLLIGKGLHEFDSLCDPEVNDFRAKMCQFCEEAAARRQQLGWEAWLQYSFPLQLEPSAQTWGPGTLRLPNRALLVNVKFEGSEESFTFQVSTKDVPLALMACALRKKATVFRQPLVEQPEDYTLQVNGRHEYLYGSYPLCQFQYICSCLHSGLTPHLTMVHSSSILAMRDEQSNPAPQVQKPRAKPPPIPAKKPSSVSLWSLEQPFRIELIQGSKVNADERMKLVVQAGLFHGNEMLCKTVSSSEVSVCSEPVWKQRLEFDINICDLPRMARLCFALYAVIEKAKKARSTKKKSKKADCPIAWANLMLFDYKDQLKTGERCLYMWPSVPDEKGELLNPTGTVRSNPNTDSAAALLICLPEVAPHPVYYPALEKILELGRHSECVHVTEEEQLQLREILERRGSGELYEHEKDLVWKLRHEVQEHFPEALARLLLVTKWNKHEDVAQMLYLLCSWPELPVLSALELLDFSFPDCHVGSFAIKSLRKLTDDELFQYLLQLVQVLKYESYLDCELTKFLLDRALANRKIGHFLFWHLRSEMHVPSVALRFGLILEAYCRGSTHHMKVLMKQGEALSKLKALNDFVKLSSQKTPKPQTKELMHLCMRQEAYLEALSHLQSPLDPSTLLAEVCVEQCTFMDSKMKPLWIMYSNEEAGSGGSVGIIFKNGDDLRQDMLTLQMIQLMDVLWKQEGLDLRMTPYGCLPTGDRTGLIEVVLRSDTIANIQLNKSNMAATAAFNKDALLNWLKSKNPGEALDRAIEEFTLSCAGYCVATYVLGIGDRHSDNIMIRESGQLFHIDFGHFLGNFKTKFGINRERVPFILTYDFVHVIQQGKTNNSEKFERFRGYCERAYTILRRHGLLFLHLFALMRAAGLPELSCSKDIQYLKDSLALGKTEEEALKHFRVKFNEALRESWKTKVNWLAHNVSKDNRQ

OCI-Ly7 = assay: Cytotoxicity against human OCILY7 cells transfected with empty vector assessed as reduction in cell viability at 3 to 5 uM incubated for 24 hrs in presence of carfilzomib by cell-titer glo assay; assay type: functional, cell-based; conditions: dose 3-5 µM
mTORC1 (Homo sapiens) [4] = biological target: T1, mTORC1 (Homo sapiens); assay: Inhibition of mTORC1 in human NCI-H929 cells assessed as reduction in c-Myc expression at 5 uM measured after 24 hrs by Western blot analysis; assay type: cell-based
mTORC1 (Homo sapiens) [5] = biological target: T1, mTORC1 (Homo sapiens); assay: Inhibition of mTORC1 in human LY7 cells assessed as reduction in c-Myc expression at 3 uM measured after 24 hrs in presence of carfilzomib by Western blot analysis; assay type: cell-based
[6] = biological target: T2, Phosphatidylinositol 4,5-bisphosphate 3-kinase catalytic subunit delta isoform (Homo sapiens); assay: Inhibition of PI3Kdelta in human HL-60 cells assessed as reduction in AKT phosphorylation at S473 residue at 1 uM measured after 4 hrs relative to control; assay type: cell-based
mTORC1 (Homo sapiens) [7] = biological target: T1, mTORC1 (Homo sapiens); assay: Inhibition of mTORC1 in human PF-382 cells assessed as reduction in c-Myc expression at 5 uM measured after 24 hrs in presence of carfilzomib by Western blot analysis; assay type: cell-based

With `CC[C@H](Nc1ncnc2[nH]cnc12)c1nc2cccc(F)c2c(=O)n1-c1ccccc1` the inhibition (mTORC1 (Homo sapiens) [1]) was “inactive” and the inhibition [2] was “inactive”.
With `CC(C)Oc1ccc(-c2nn([C@@H](C)c3oc4ccc(F)cc4c(=O)c3-c3cccc(F)c3)c3ncnc(N)c23)cc1F` [UMBRALISIB] the Activity (NCI-H929) was “Active”, the inhibition [3] was 43% and the Activity (OCI-Ly7) was “Active”. The inhibition (mTORC1 (Homo sapiens) [4]) was “inactive”, the inhibition (mTORC1 (Homo sapiens) [5]) was “Active” and the inhibition [6] was 43%. The inhibition (mTORC1 (Homo sapiens) [7]) was “Active”.
